Experimental data reported in patent publication US10161931B2, “Methods for determining susceptibility to coreceptor inhibitors” (Monogram Biosciences, Inc., priority 2006, dated 2018).

Key:
[1] = tested on: dual-R clone 86d; test: Entry inhibitor susceptibility, pseudotyped HIV-1 entry (luciferase) assay, env clone 86d (c86); format: cell-based
Protocol: (§1) Susceptibility assays for HIV-1 entry inhibitors were performed using packaging host cells consisting of the human embryonic kidney cell line 293 (Cell Culture Facility, UC San Francisco, SF, Calif.) and target host cells consisting of a human osteosarcoma (HOS) cell line expressing CD4 (HT4) plus CCR5, and CXCR4, astrocytoma (U-87) cell lines expressing either CD4 and CCR5 or CD4 and CXCR4, or glioma (NP2) cell lines expressing CD4 and either CCR5 or CXCR4.
(§2) Drug susceptibility and tropism testing was performed using pHIVenv and pHIVluc or pHIVlucΔU3. […] After infection ([…]) the target cells were lysed and luciferase activity was measured. […] The amount of luciferase activity detected in the infected cells was used as a direct measure of “infectivity” (FIGS. 1 and 2). […] Drug susceptibility was assessed by comparing the infectivity in the absence of drug to infectivity in the presence of drug. Relative drug susceptibility can be quantified by comparing the susceptibility of the “test” virus to the susceptibility of a well-characterized reference virus (wild type) derived from a molecular clone of HIV-1, for example NL4-3 or PIXB2.
(§3) The ability of a virus to enter a cell was assessed by comparing the amount of luciferase activity produced in each cell type, e.g., cells expressing CD4 and either CCR5 or CXCR4, both in the presence and absence of drug. […]

[2] = tested on: dual-X clone 88D; test: Entry inhibitor susceptibility, pseudotyped HIV-1 entry (luciferase) assay, env clone 88D (c88); format: cell-based; details: Human immunodeficiency virus 1; clone c88, tropism dual; read-out: Sensitivity of Entry Inhibitors
Protocol: as §1, §2, §3

[3] = tested on: dual-X clone 11D; test: Entry inhibitor susceptibility, pseudotyped HIV-1 entry (luciferase) assay, env clone 11D (c11); format: cell-based; details: Human immunodeficiency virus 1; clone c11, tropism dual; read-out: Sensitivity of Entry Inhibitors
Protocol: as §1, §2, §3

[4] = tested on: X4-tropic clone 42x; test: Entry inhibitor susceptibility, pseudotyped HIV-1 entry (luciferase) assay, env clone 42x (c42); format: cell-based
Protocol: as §1, §2, §3

[5] = tested on: dual-R clone 21d; test: Entry inhibitor susceptibility, pseudotyped HIV-1 entry (luciferase) assay, env clone 21d (c21); format: cell-based; details: dual-R clone 21d compared to R5-, X4- and dual-X tropic clones
Protocol: as §1, §2, §3

[6] = tested on: Isogenic viruses containing one or two specific mutations in the gp41 transmembrane envelope protein; test: T-20 susceptibility of isogenic viruses with gp41 mutations (FIG. 4B); format: cell-based, HIV; details: cells expressing CD4, CCR5 and CXCR4, gp41 mutants vs wild type
Protocol: Cells expressing CD4, CCR5 and CXCR4 were infected in the absence of T-20 and over a wide range of T-20 concentrations (x-axis log 10 scale). The percent inhibition of viral replication (y-axis) was determined by comparing the amount of luciferase produced in infected cells in the presence of T-20 to the amount of luciferase produced in the absence of T-20. Isogenic viruses containing one or two specific mutations in the gp41 transmembrane envelope protein were tested (highlighted in red in the figure legend). Drug susceptibility is quantified by determining the concentration of T-20 required to inhibit 50% of viral replication (IC50, shown as vertical dashed lines). […]
as §2

Compound | IC50 ([1]; Human immunodeficiency virus 1, clone c86, tropism dual-R, read-out: Sensitivity of Entry Inhibitors) [nM] | IC50 [2] [nM] | IC50 [3] [nM] | IC50 ([4]; Human immunodeficiency virus 1, clone c42, tropism X4, read-out: Sensitivity of Entry Inhibitors) [nM] | sensitivity compared to other clones (in words) ([4]; X4 clone 42d (so in the source)) | fold-reduced susceptibility [5] | fold-reduced susceptibility ([1]; dual-R clone 86d compared to R5-, X4- and dual-X tropic clones) | susceptibility to fusion inhibitor (in words) [6]
c1cc(CN2CCCNCCNCCCNCC2)ccc1CN1CCCNCCNCCCNCC1 [AMD] | 5.6 | 8.7 | 3.4 | 45.8 | subtle reduction in sensitivity | – | – | –
enfuvirtide | – | – | – | – | – | 4-5 fold | 4-5 fold | reduced susceptibility
